Assays:
Type in all cases: in vivo
Conditions in all cases: wettable powder applied 3 days after transplanting, judged after 25 days
[1] = test system: transplanted paddy-field rice; assay: Test Example 1: crop injury against transplanted paddy-field rice
Method in brief: (§1)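 Greenhouse, flooded paddy soil; weeds from seed (top 1 cm), C. serotinus from germinated tubers, rice transplanted at 2.2-leaf stage. WP diluted in water, applied to pot day 3 post-transplant. Scored day 25 post-treatment, 0–5 inhibition scale.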

Cyperus serotinus = assay: Test Example 1: herbicidal effects, paddy-field pot test
Method in brief: as §1

Scirpus joncoides = assay: as above
Method in brief: as §1

[2] = test system: annual broad-leaved weeds (Lindernia spp., Rotala indica); assay: as above
Method in brief: as §1

[3] = test system: barnyardgrass (Echinochloa oryzicola Vasing.); assay: as above
Method in brief: as §1

## Cc1ccccc1Oc1nnc(Cl)cc1OC(=O)OCC(Cl)(Cl)Cl [Example 349]
[1]; chemical dosage 10 g/a
  Crop injury against transplanted rice: 0 (Growth inhibition rate; 0 to 10%)
[1]; chemical dosage 20 g/a
  Crop injury against transplanted rice: 0 (Growth inhibition rate; 0 to 10%)
Cyperus serotinus; chemical dosage 10 g/a
  Herbicidal effects Cyperus serotinus: 5 (Growth inhibition rate; 91 to 100%)
Cyperus serotinus; chemical dosage 20 g/a
  Herbicidal effects Cyperus serotinus: 5 (Growth inhibition rate; 91 to 100%)
Scirpus joncoides; chemical dosage 10 g/a
  Herbicidal effects Scirpus joncoides: 4 (Growth inhibition rate; 71 to 90%)
Scirpus joncoides; chemical dosage 20 g/a
  Herbicidal effects Scirpus joncoides: 5 (Growth inhibition rate; 91 to 100%)
[2]; chemical dosage 10 g/a
  Herbicidal effects Broad leaf: 4 (Growth inhibition rate; 71 to 90%)
[2]; chemical dosage 20 g/a
  Herbicidal effects Broad leaf: 5 (Growth inhibition rate; 91 to 100%)
[3]; chemical dosage 10 g/a
  Herbicidal effects Barnyard grass: 3 (Growth inhibition rate; 51 to 70%)
[3]; chemical dosage 20 g/a
  Herbicidal effects Barnyard grass: 4 (Growth inhibition rate; 71 to 90%)

## Cc1ccc2c(c1Oc1nnc(Cl)cc1O)OCC2 [Example 308]
[1]; chemical dosage 10 g/a
  Crop injury against transplanted rice: 0 (Growth inhibition rate; 0 to 10%)
[1]; chemical dosage 20 g/a
  Crop injury against transplanted rice: 0 (Growth inhibition rate; 0 to 10%)
Cyperus serotinus; chemical dosage 10 g/a
  Herbicidal effects Cyperus serotinus: 5 (Growth inhibition rate; 91 to 100%)
Cyperus serotinus; chemical dosage 20 g/a
  Herbicidal effects Cyperus serotinus: 5 (Growth inhibition rate; 91 to 100%)
Scirpus joncoides; chemical dosage 10 g/a
  Herbicidal effects Scirpus joncoides: 4 (Growth inhibition rate; 71 to 90%)
Scirpus joncoides; chemical dosage 20 g/a
  Herbicidal effects Scirpus joncoides: 5 (Growth inhibition rate; 91 to 100%)
[2]; chemical dosage 10 g/a
  Herbicidal effects Broad leaf: 5 (Growth inhibition rate; 91 to 100%)
[2]; chemical dosage 20 g/a
  Herbicidal effects Broad leaf: 5 (Growth inhibition rate; 91 to 100%)
[3]; chemical dosage 10 g/a
  Herbicidal effects Barnyard grass: 2 (Growth inhibition rate; 31 to 50%)
[3]; chemical dosage 20 g/a
  Herbicidal effects Barnyard grass: 4 (Growth inhibition rate; 71 to 90%)

## CCc1cccc(C2CC2)c1Oc1nnc(Cl)cc1O [Example 269]
[1]; chemical dosage 10 g/a
  Crop injury against transplanted rice: 3 (Growth inhibition rate; 51 to 70%)
[1]; chemical dosage 20 g/a
  Crop injury against transplanted rice: 5 (Growth inhibition rate; 91 to 100%)
Cyperus serotinus; chemical dosage 10 g/a
  Herbicidal effects Cyperus serotinus: 5 (Growth inhibition rate; 91 to 100%)
Cyperus serotinus; chemical dosage 20 g/a
  Herbicidal effects Cyperus serotinus: 5 (Growth inhibition rate; 91 to 100%)
Scirpus joncoides; chemical dosage 10 g/a
  Herbicidal effects Scirpus joncoides: 5 (Growth inhibition rate; 91 to 100%)
Scirpus joncoides; chemical dosage 20 g/a
  Herbicidal effects Scirpus joncoides: 5 (Growth inhibition rate; 91 to 100%)
[2]; chemical dosage 10 g/a
  Herbicidal effects Broad leaf: 5 (Growth inhibition rate; 91 to 100%)
[2]; chemical dosage 20 g/a
  Herbicidal effects Broad leaf: 5 (Growth inhibition rate; 91 to 100%)
[3]; chemical dosage 10 g/a
  Herbicidal effects Barnyard grass: 2 (Growth inhibition rate; 31 to 50%)
[3]; chemical dosage 20 g/a
  Herbicidal effects Barnyard grass: 3 (Growth inhibition rate; 51 to 70%)

## Oc1cc(Cl)nnc1Oc1c(Cl)cccc1Cl [Example 240]
[1]; chemical dosage 12.5 g/a
  Crop injury against transplanted rice: 0 (Growth inhibition rate; 0 to 10%)
[1]; chemical dosage 25 g/a
  Crop injury against transplanted rice: 0 (Growth inhibition rate; 0 to 10%)
Cyperus serotinus; chemical dosage 12.5 g/a
  Herbicidal effects Cyperus serotinus: 5 (Growth inhibition rate; 91 to 100%)
Cyperus serotinus; chemical dosage 25 g/a
  Herbicidal effects Cyperus serotinus: 5 (Growth inhibition rate; 91 to 100%)
Scirpus joncoides; chemical dosage 12.5 g/a
  Herbicidal effects Scirpus joncoides: 3 (Growth inhibition rate; 51 to 70%)
Scirpus joncoides; chemical dosage 25 g/a
  Herbicidal effects Scirpus joncoides: 4 (Growth inhibition rate; 71 to 90%)
[2]; chemical dosage 12.5 g/a
  Herbicidal effects Broad leaf: 5 (Growth inhibition rate; 91 to 100%)
[2]; chemical dosage 25 g/a
  Herbicidal effects Broad leaf: 5 (Growth inhibition rate; 91 to 100%)
[3]; chemical dosage 12.5 g/a
  Herbicidal effects Barnyard grass: 2 (Growth inhibition rate; 31 to 50%)
[3]; chemical dosage 25 g/a
  Herbicidal effects Barnyard grass: 3 (Growth inhibition rate; 51 to 70%)

## Oc1cc(Cl)nnc1Oc1c(C2CC2)ccc2ccoc12 [Example 311]
[1]; chemical dosage 10 g/a
  Crop injury against transplanted rice: 0 (Growth inhibition rate; 0 to 10%)
[1]; chemical dosage 20 g/a
  Crop injury against transplanted rice: 0 (Growth inhibition rate; 0 to 10%)
Cyperus serotinus; chemical dosage 10 g/a
  Herbicidal effects Cyperus serotinus: 4 (Growth inhibition rate; 71 to 90%)
Cyperus serotinus; chemical dosage 20 g/a
  Herbicidal effects Cyperus serotinus: 5 (Growth inhibition rate; 91 to 100%)
Scirpus joncoides; chemical dosage 10 g/a
  Herbicidal effects Scirpus joncoides: 4 (Growth inhibition rate; 71 to 90%)
Scirpus joncoides; chemical dosage 20 g/a
  Herbicidal effects Scirpus joncoides: 5 (Growth inhibition rate; 91 to 100%)
[2]; chemical dosage 10 g/a
  Herbicidal effects Broad leaf: 5 (Growth inhibition rate; 91 to 100%)
[2]; chemical dosage 20 g/a
  Herbicidal effects Broad leaf: 5 (Growth inhibition rate; 91 to 100%)
[3]; chemical dosage 10 g/a
  Herbicidal effects Barnyard grass: 1 (Growth inhibition rate; 11 to 30%)
[3]; chemical dosage 20 g/a
  Herbicidal effects Barnyard grass: 3 (Growth inhibition rate; 51 to 70%)

## Cc1ccc(Br)c(Oc2nnc(Cl)cc2O)c1C [Example 294]
[1]; chemical dosage 10 g/a
  Crop injury against transplanted rice: 0 (Growth inhibition rate; 0 to 10%)
[1]; chemical dosage 20 g/a
  Crop injury against transplanted rice: 0 (Growth inhibition rate; 0 to 10%)
Cyperus serotinus; chemical dosage 10 g/a
  Herbicidal effects Cyperus serotinus: 5 (Growth inhibition rate; 91 to 100%)
Cyperus serotinus; chemical dosage 20 g/a
  Herbicidal effects Cyperus serotinus: 5 (Growth inhibition rate; 91 to 100%)
Scirpus joncoides; chemical dosage 10 g/a
  Herbicidal effects Scirpus joncoides: 5 (Growth inhibition rate; 91 to 100%)
Scirpus joncoides; chemical dosage 20 g/a
  Herbicidal effects Scirpus joncoides: 5 (Growth inhibition rate; 91 to 100%)
[2]; chemical dosage 10 g/a
  Herbicidal effects Broad leaf: 5 (Growth inhibition rate; 91 to 100%)
[2]; chemical dosage 20 g/a
  Herbicidal effects Broad leaf: 5 (Growth inhibition rate; 91 to 100%)
[3]; chemical dosage 10 g/a
  Herbicidal effects Barnyard grass: 1 (Growth inhibition rate; 11 to 30%)
[3]; chemical dosage 20 g/a
  Herbicidal effects Barnyard grass: 2 (Growth inhibition rate; 31 to 50%)

## CC1CCc2cccc(Oc3nnc(Cl)cc3O)c21 (stereo not drawn) [Example 172]
[1]; chemical dosage 10 g/a
  Crop injury against transplanted rice: 0 (Growth inhibition rate; 0 to 10%)
[1]; chemical dosage 20 g/a
  Crop injury against transplanted rice: 0 (Growth inhibition rate; 0 to 10%)
Cyperus serotinus; chemical dosage 10 g/a
  Herbicidal effects Cyperus serotinus: 4 (Growth inhibition rate; 71 to 90%)
Cyperus serotinus; chemical dosage 20 g/a
  Herbicidal effects Cyperus serotinus: 5 (Growth inhibition rate; 91 to 100%)
Scirpus joncoides; chemical dosage 10 g/a
  Herbicidal effects Scirpus joncoides: 5 (Growth inhibition rate; 91 to 100%)
Scirpus joncoides; chemical dosage 20 g/a
  Herbicidal effects Scirpus joncoides: 5 (Growth inhibition rate; 91 to 100%)
[2]; chemical dosage 10 g/a
  Herbicidal effects Broad leaf: 5 (Growth inhibition rate; 91 to 100%)
[2]; chemical dosage 20 g/a
  Herbicidal effects Broad leaf: 5 (Growth inhibition rate; 91 to 100%)
[3]; chemical dosage 10 g/a
  Herbicidal effects Barnyard grass: 5 (Growth inhibition rate; 91 to 100%)
[3]; chemical dosage 20 g/a
  Herbicidal effects Barnyard grass: 5 (Growth inhibition rate; 91 to 100%)

## O=S(=O)(Oc1cc(Cl)nnc1Oc1ccccc1C1CC1)c1ccccc1 [Example 365]
[1]; chemical dosage 10 g/a
  Crop injury against transplanted rice: 0 (Growth inhibition rate; 0 to 10%)
[1]; chemical dosage 20 g/a
  Crop injury against transplanted rice: 0 (Growth inhibition rate; 0 to 10%)
Cyperus serotinus; chemical dosage 10 g/a
  Herbicidal effects Cyperus serotinus: 5 (Growth inhibition rate; 91 to 100%)
Cyperus serotinus; chemical dosage 20 g/a
  Herbicidal effects Cyperus serotinus: 5 (Growth inhibition rate; 91 to 100%)
Scirpus joncoides; chemical dosage 10 g/a
  Herbicidal effects Scirpus joncoides: 4 (Growth inhibition rate; 71 to 90%)
Scirpus joncoides; chemical dosage 20 g/a
  Herbicidal effects Scirpus joncoides: 5 (Growth inhibition rate; 91 to 100%)
[2]; chemical dosage 10 g/a
  Herbicidal effects Broad leaf: 5 (Growth inhibition rate; 91 to 100%)
[2]; chemical dosage 20 g/a
  Herbicidal effects Broad leaf: 5 (Growth inhibition rate; 91 to 100%)
[3]; chemical dosage 10 g/a
  Herbicidal effects Barnyard grass: 2 (Growth inhibition rate; 31 to 50%)
[3]; chemical dosage 20 g/a
  Herbicidal effects Barnyard grass: 3 (Growth inhibition rate; 51 to 70%)

## Cc1ccc(C)c(Oc2nnc(Cl)cc2O)c1C [Example 295]
[1]; chemical dosage 12.5 g/a
  Crop injury against transplanted rice: 0 (Growth inhibition rate; 0 to 10%)
[1]; chemical dosage 25 g/a
  Crop injury against transplanted rice: 0 (Growth inhibition rate; 0 to 10%)
Cyperus serotinus; chemical dosage 12.5 g/a
  Herbicidal effects Cyperus serotinus: 5 (Growth inhibition rate; 91 to 100%)
Cyperus serotinus; chemical dosage 25 g/a
  Herbicidal effects Cyperus serotinus: 5 (Growth inhibition rate; 91 to 100%)
Scirpus joncoides; chemical dosage 12.5 g/a
  Herbicidal effects Scirpus joncoides: 5 (Growth inhibition rate; 91 to 100%)
Scirpus joncoides; chemical dosage 25 g/a
  Herbicidal effects Scirpus joncoides: 5 (Growth inhibition rate; 91 to 100%)
[2]; chemical dosage 12.5 g/a
  Herbicidal effects Broad leaf: 5 (Growth inhibition rate; 91 to 100%)
[2]; chemical dosage 25 g/a
  Herbicidal effects Broad leaf: 5 (Growth inhibition rate; 91 to 100%)
[3]; chemical dosage 12.5 g/a
  Herbicidal effects Barnyard grass: 0 (Growth inhibition rate; 0 to 10%)
[3]; chemical dosage 25 g/a
  Herbicidal effects Barnyard grass: 1 (Growth inhibition rate; 11 to 30%)

## CC(C)c1cccc(C2CC2)c1Oc1nnc(Cl)cc1O [Example 272]
[1]; chemical dosage 10 g/a
  Crop injury against transplanted rice: 0 (Growth inhibition rate; 0 to 10%)
[1]; chemical dosage 20 g/a
  Crop injury against transplanted rice: 0 (Growth inhibition rate; 0 to 10%)
Cyperus serotinus; chemical dosage 10 g/a
  Herbicidal effects Cyperus serotinus: 4 (Growth inhibition rate; 71 to 90%)
Cyperus serotinus; chemical dosage 20 g/a
  Herbicidal effects Cyperus serotinus: 4 (Growth inhibition rate; 71 to 90%)
Scirpus joncoides; chemical dosage 10 g/a
  Herbicidal effects Scirpus joncoides: 4 (Growth inhibition rate; 71 to 90%)
Scirpus joncoides; chemical dosage 20 g/a
  Herbicidal effects Scirpus joncoides: 5 (Growth inhibition rate; 91 to 100%)
[2]; chemical dosage 10 g/a
  Herbicidal effects Broad leaf: 5 (Growth inhibition rate; 91 to 100%)
[2]; chemical dosage 20 g/a
  Herbicidal effects Broad leaf: 5 (Growth inhibition rate; 91 to 100%)
[3]; chemical dosage 10 g/a
  Herbicidal effects Barnyard grass: 0 (Growth inhibition rate; 0 to 10%)
[3]; chemical dosage 20 g/a
  Herbicidal effects Barnyard grass: 0 (Growth inhibition rate; 0 to 10%)

## Oc1cc(Cl)nnc1Oc1c(C2CC2)cccc1C1CC1 [Example 275]
[1]; chemical dosage 10 g/a
  Crop injury against transplanted rice: 1 (Growth inhibition rate; 11 to 30%)
[1]; chemical dosage 20 g/a
  Crop injury against transplanted rice: 3 (Growth inhibition rate; 51 to 70%)
Cyperus serotinus; chemical dosage 10 g/a
  Herbicidal effects Cyperus serotinus: 5 (Growth inhibition rate; 91 to 100%)
Cyperus serotinus; chemical dosage 20 g/a
  Herbicidal effects Cyperus serotinus: 5 (Growth inhibition rate; 91 to 100%)
Scirpus joncoides; chemical dosage 10 g/a
  Herbicidal effects Scirpus joncoides: 5 (Growth inhibition rate; 91 to 100%)
Scirpus joncoides; chemical dosage 20 g/a
  Herbicidal effects Scirpus joncoides: 5 (Growth inhibition rate; 91 to 100%)
[2]; chemical dosage 10 g/a
  Herbicidal effects Broad leaf: 5 (Growth inhibition rate; 91 to 100%)
[2]; chemical dosage 20 g/a
  Herbicidal effects Broad leaf: 5 (Growth inhibition rate; 91 to 100%)
[3]; chemical dosage 10 g/a
  Herbicidal effects Barnyard grass: 4 (Growth inhibition rate; 71 to 90%)
[3]; chemical dosage 20 g/a
  Herbicidal effects Barnyard grass: 4 (Growth inhibition rate; 71 to 90%)

## Oc1cc(Cl)nnc1Oc1c(Cl)cccc1I [Example 241]
[1]; chemical dosage 10 g/a
  Crop injury against transplanted rice: 0 (Growth inhibition rate; 0 to 10%)
[1]; chemical dosage 20 g/a
  Crop injury against transplanted rice: 0 (Growth inhibition rate; 0 to 10%)
Cyperus serotinus; chemical dosage 10 g/a
  Herbicidal effects Cyperus serotinus: 5 (Growth inhibition rate; 91 to 100%)
Cyperus serotinus; chemical dosage 20 g/a
  Herbicidal effects Cyperus serotinus: 5 (Growth inhibition rate; 91 to 100%)
Scirpus joncoides; chemical dosage 10 g/a
  Herbicidal effects Scirpus joncoides: 3 (Growth inhibition rate; 51 to 70%)
Scirpus joncoides; chemical dosage 20 g/a
  Herbicidal effects Scirpus joncoides: 4 (Growth inhibition rate; 71 to 90%)
[2]; chemical dosage 10 g/a
  Herbicidal effects Broad leaf: 5 (Growth inhibition rate; 91 to 100%)
[2]; chemical dosage 20 g/a
  Herbicidal effects Broad leaf: 5 (Growth inhibition rate; 91 to 100%)
[3]; chemical dosage 10 g/a
  Herbicidal effects Barnyard grass: 1 (Growth inhibition rate; 11 to 30%)
[3]; chemical dosage 20 g/a
  Herbicidal effects Barnyard grass: 3 (Growth inhibition rate; 51 to 70%)

Source: patent US7964531B2, “3-phenoxy-4-pyridazinol derivatives and herbicidal composition containing the same” (Mitsui Chemicals Agro, Inc., priority 2001, dated 2011)
